Measurements: patent US6482412B1, “Polypeptide having human HIV inhibitory activity, a gene encoding the polypeptide, a method to produce the polypeptide” (Gakkou Houjin Kitasato Gakuen, priority 1999, dated 2002)
Converted amounts (≈) assume the structure as drawn.

How the values were obtained:
Format in all cases: cell-based
[1] = Cytotoxicity on uninfected MT-4 cells, MTT method; settings: human, five days
Procedure: (§1) Anti-HIV activity was measured from suppression of cytopathic effect caused by HIV infection. The HIV infected MT-4 cell (2.5×10^4 cells/well, degree of multiple infection: 0.01) was added to 96 well titer plate immediately after infection. At the same time, K97-0003 peptide of various concentration was also added to the plate. In order to examine cytopathic effect of K97-0003 peptide on MT-4 cell, cells uninfected by HIV was incubated with K97-0003 peptide of various concentrations in the same manner. After five days of incubation at 37° C. in a CO2 incubator, the number of cell survived was measured by MTT method.
(2) CC50: It is the concentration of K97-0003 peptide that causes cytotoxicity to 50% of cells, and is the parameter of cytotoxic effect of the peptide.

[2] = system: HIV infected MT-4 cell; experiment: Anti-HIV activity by suppression of cytopathic effect, MTT method; settings: Human immunodeficiency virus 1, MT4, 120 h, read-out: BC50
Procedure: as §1
(1) EC50: It is the concentration of K97-0003 peptide which inhibits 50% of the cytotoxicity by HIV infection, and is the parameter of anti-HIV activity of the peptide.

[3] = system: syncytium formation by fusion of HeLa/CD4/LTR cells and HeLa135/env (T-tropic HIV-1)/Tat cells; experiment: cells; settings: Human immunodeficiency virus 1, HeLa, read-out: IC50 of syncytium formation ability
Procedure: 50 μl of HeLa/CD4 /LTR cell suspension prepared to 1.6×10^5 cells/ml was inoculated into every each well of 96 well plate (IWAKI MICROPLATE 96well), and 10 μl of the sample, diluted in a series of concentration with phosphate buffer physiological saline, was added to every each well. Then, 50 μl of HeLa135/env(envelope glycoprotein: originated from T-tropic HIV-1)/Tat cell suspension prepared to 1.6×10^5 cells/ml was dispensed to every well, and incubated in an incubator at 37° C. under 5% CO2 air current for 24 hours. After removal of the culture fluid from each well, 20 μl of cell lysis solution was added to every each well, and the plate was left at the room temperature for about 10 minutes.
Continuously, 100 μl of chromogenic substrate solution (Z-buffer: 80 μl+4 mg/ml o-nitrophenyl-β-D-glactopyranoside:20 μl) was added to each well, and reacted in the incubator at 37° C. […] After 80 minutes, 25 μl of reaction stop solution (2M Na2CO3) was added to it, and the absorbance at 405 nm was measured using colorimeter (Organ ON SystemMicrowell System Reader 510). Syncytium formation ability was calculated from the obtained absorbance by the following formula.
Syncytium formation ability=the absorbance of the well with sample addition/absorbance of control×100

For `CN1C(=O)[C@@H](c2cc(Cl)c(O)c(Cl)c2)NC(=O)[C@@H]2NC(=O)[C@@H](c3cc(Cl)c(O)c(Cl)c3)NC(=O)[C@H](NC(=O)C(=O)c3cc(Cl)c(O)c(Cl)c3)Cc3c[nH]c4c(cccc34)-c3cc2cc(c3O)Oc2ccc(cc2)C[C@H]1C(=O)N[C@@H](C(=O)O)c1ccc(O)cc1` [Chloropeptine, chloropeptin, reference compound], the CC50 at 5 days [1] was > 600000 nM, the EC50 [2] was 1600 nM and the IC50 [3] was 1.7 µg/mL (≈ 1.28 µM).
